# Laboratory results taken from patent US20160193240A1, “Ulmoside-A: Useful For Prevention Or Cure Of Metabolic Diseases” (COUNCIL OF SCIENTIFIC & INDUSTRIAL RESEARCH, priority 2013, published 2016).
# How the values were obtained:
# [1] = tested on: db/db mice; assay: Random (fed) blood glucose in db/db mice; format: in vivo, mouse; settings: 5 mg/kg ULMA for 15 d
# Method: 8 week old db/db mice were treated with vehicle (V; 1% gum acacia) or with 5 mg/kg ULMA for 15 days and the fed blood glucose was measured by a glucometer (Gluco Dr. Super sensor; that is capable of measuring 10-900 mg/dl glucose) ** p<0.01, ***p<0.005, n=6.
# (§1) 8 week old female db/db mice (n=6) weighing 40-50 g were divided into 2 groups and maintained as above. Control groups received vehicle (1% gum acacia) and ULMA groups received 5 mg/kg bw ULMA in 1% gum acacia for […]. Body weight and blood glucose were measured at the beginning and end of the studies.
# [2] = tested on: db/db mice; assay: Body weight of db/db mice; format: in vivo, mouse; settings: 5 mg/kg ULMA for 15 d
# Method: 8 week old db/db mice were treated with vehicle (V; 1% gum acacia) or with 5 mg/kg ULMA for 15 days and the body weights were measured on 0th, 7th, 10th, or 15th day of treatment and plotted. ** p<0.01, n=6.
# as §1
# [3] = tested on: C2C12 myotubes; assay: Glucose uptake assay (3H-deoxyglucose) in C2C12 myotubes; format: cell-based, mouse; settings: 10 nM
# Method: A. ULMA enhances glucose uptake in C2C12 myotubes. C2C12 myotubes in 24 well plates were treated with vehicle (DMSO) or 10 nM ULMA and glucose uptake assay was performed in presence or absence of 100 nM insulin. Data is mean±SEM of six independent experiments performed in triplicates. *p<0.05, **p<0.01, ***p<0.001 as determined by two tailed unpaired student's t-test.
# C. siAdipoR1 eliminates ULMA induction of glucose uptake. C2C12 myotubes were transfected with nonsilencing siC or siAdipoR1. 72 h after transfection, cells were treated for 24 h with 10 nM ULMA and glucose uptake assay was performed. Data is mean±SEM of three independent experiments performed in triplicates. ***p<0.001 as determined by two tailed unpaired student's t-test.
# Adiponectin is known to enhance glucose uptake and fatty acid oxidation in skeletal muscle and myotubes (T. Kadowaki, T. Yamauchi, N. Kubota, K. Hara, K. Ueki, K. Tobe. J Clin Invest. 116(7): 1784-1792. 2006; T. Yamauchi, J. Kamon, Y. Ito, A. Tsuchida, T. Yokomizok, S. Kita, T. Sugiyama, M. Miyagishi, K. Hara, M. Tsunodaq, K. Murakamiq, T. Ohteki, S. Uchida, S. Takekawa, H. Waki, N. H. Tsuno, Y. Shibata, Y. Terauchi, P. Froguel, K. Tobe, S. Koyasu, K. Taira, T. Kitamura, T. Shimizuk, R. Nagai, T. Kadowaki. Nature. 423(6941):762-769. 2003). Therefore the ability of ULMA to influence insulin-dependent and independent glucose uptake and fatty acid oxidation was investigated in C2C12 myotubes. […] Subsequently, the cells were lysed in 100 μl 0.5N NaOH and 5 μl lysate was used for protein concentration determination, and rest of the lysate was used to measure cellular radioactivity in a beta-counter (Beckman Coulter). […] Radioactivity that had become adsorbed onto the filter discs was then quantified by liquid scintillation counting in a beta-counter (Beckman Coulter). The cells were lysed with 200 μl 0.5N NaOH and 5 μl of the lysate was used for protein estimation using Bradford assay and the radioactivity was normalized with the protein content.
# [4] = tested on: rats; settings: cited from earlier work
structure (smiles),measurement,setting,value
"O=C1c2c(cc(O)c([C@@H]3O[C@H](CO)[C@@H](O)[C@H](O)[C@H]3O)c2O)O[C@@H](c2ccc(O)c(O)c2)[C@@H]1O [ULMA, (2S,3S)-(+)-3′,4′,5,7-tetrahydroxydihydroflavonol-6-C-β-D-glucopyranoside]",fed blood glucose in comparison to vehicle treated control mice,[1],significantly reduced fed blood glucose
same,body weight compared to vehicle treated control mice,[2],significantly reduced body weight
same,ULMA-induced glucose uptake with siAdipoR1 (not siC),"[3]; 24 h, 72 h after siRNA transfection",completely eliminated
same,glucose uptake in absence of insulin,[3]; 24 hours,enhanced
same,glucose uptake in presence of insulin,"[3]; 24 hours, 100 nM insulin 20 min",enhanced
same,effect on ovariectomy-induced osteoporosis,[4],mitigated ovariectomy-induced osteoporosis
